The nature of the data set: recombinant UMI read abundance after kanamycin selection (control-corrected) (log10(CPM+1)); higher = more efficient recombination; extreme values may be limits of the assay; sequences stand for … in AGTGCAGAGAAAATCGGCCAGTTTTCTCTGCCTGCAGTCCGCATGCCGTGGGACCCCTTGGGTTCTAACCTGTTGCCTAGATTTATGCAGCGGACTGCCTTTCTCCCAAAGTGATAAACCGG…AGGTTGGTTTCACT; site = the 11-nt donor. The essentials: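 Sequencing read counts were converted to CPM, averaged over two replicates and scaled by control-derived factors. Results are given as log10(CPM+1). The reads covered the donor–target junction of recombinant UMIs from a pooled Escherichia coli screen of donor and donor-binding-loop pairs for the IS621 bridge recombinase.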
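Also: IS621 bridge recombinase in Escherichia coli cells against a fixed T5 target plasmid.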

Regarding “TGTGGAACATGGACCGGTTTTCCCGGTAATCCGTATTTGTT (site CGTGGAACTAA)”, the “recombinant UMI read abundance (log10)” value stood at 0.0659. As for “TGTGGAACATGGACCGGTTTTCCCGGTAATCCGTATTTGTT (site GGTGGAACTAA)”, the “recombinant UMI read abundance (log10)” value amounted to 0. As for “TGTGGAACATGGACCGGTTTTCCCGGTAATCCGTATTTGTT (site TGTGGAACTAA)”, the figure is 0.511; as for “TGTGTAACATGGACCGGTTTTCCCGGTAATCCGTATTTGAC (site TGTGTAACTGT)”, 0; as for “TGTTAGGCATGGACCGGTTTTCCCGGTAATCCGTATTTGGT (site TGATAGGCTAC)”, 0.0087. Take “TGTTAGGCATGGACCGGTTTTCCCGGTAATCCGTATTTGGT (site TGCTAGGCTAC)”: the “recombinant UMI read abundance (log10)” value amounted to 0.304. With “TGTTAGGCATGGACCGGTTTTCCCGGTAATCCGTATTTGGT (site TGGTAGGCTAC)”, the “recombinant UMI read abundance (log10)” value came out at 0.017.

With “TGTTAGGCATGGACCGGTTTTCCCGGTAATCCGTATTTGGT (site TGTTAGGCTAC)”, the “recombinant UMI read abundance (log10)” value came to 0.273. As to “TGTTCACCATGGACCGGTTTTCCCGGTAATCCGTATTTGAC (site TGTACACCTGT)”, the “recombinant UMI read abundance (log10)” value turned out to be 0.

Take “TGTTCACCATGGACCGGTTTTCCCGGTAATCCGTATTTGAC (site TGTCCACCTGT)”: the “recombinant UMI read abundance (log10)” value was determined as 0. Take “TGTTCACCATGGACCGGTTTTCCCGGTAATCCGTATTTGAC (site TGTGCACCTGT)”: the “recombinant UMI read abundance (log10)” value came out at 0. Take “TGTTCACCATGGACCGGTTTTCCCGGTAATCCGTATTTGAC (site TGTTCACCTGT)”: the “recombinant UMI read abundance (log10)” value is 0. As for “TGTTCCCCATGGACCGGTTTTCCCGGTAATCCGTATTTGTG (site TGTTCCCCTAA)”, the “recombinant UMI read abundance (log10)” value came out at 0.00613. Consider “TGTTCCCCATGGACCGGTTTTCCCGGTAATCCGTATTTGTG (site TGTTCCCCTCA)”, for which the “recombinant UMI read abundance (log10)” value was found to be 0.0316.

For “TGTTCCCCATGGACCGGTTTTCCCGGTAATCCGTATTTGTG (site TGTTCCCCTGA)”, the “recombinant UMI read abundance (log10)” value amounted to 0. For “TGTTCCCCATGGACCGGTTTTCCCGGTAATCCGTATTTGTG (site TGTTCCCCTTA)”, the “recombinant UMI read abundance (log10)” value is 0.

For the sequence “TGTTCCCCATGGACCGGTTTTCCCGGTAATCCGTATTTGTT (site TGTTCCCCTAA)”, the “recombinant UMI read abundance (log10)” value amounted to 0.014. For “TGTTCCCCATGGACCGGTTTTCCCGGTAATCCGTATTTGTT (site TGTTCCCCTCA)”, the “recombinant UMI read abundance (log10)” value worked out at 0.0148.

As for “TGTTCCCCATGGACCGGTTTTCCCGGTAATCCGTATTTGTT (site TGTTCCCCTGA)”, the “recombinant UMI read abundance (log10)” value is 0. The same measure for “TGTTCCCCATGGACCGGTTTTCCCGGTAATCCGTATTTGTT (site TGTTCCCCTTA)”: 0.0133; for “TGTTCCGCATGGACCGGTTTTCCCGGTAATCCGTATTTGTA (site TGTTCCACTTA)”: 0.00713. Consider “TGTTCCGCATGGACCGGTTTTCCCGGTAATCCGTATTTGTA (site TGTTCCCCTTA)”, for which the “recombinant UMI read abundance (log10)” value is 0.0203.

With “TGTTCCGCATGGACCGGTTTTCCCGGTAATCCGTATTTGTA (site TGTTCCGCTTA)”, the “recombinant UMI read abundance (log10)” value is 0.0982.

Turning to “TGTTCCGCATGGACCGGTTTTCCCGGTAATCCGTATTTGTA (site TGTTCCTCTTA)”, the “recombinant UMI read abundance (log10)” value came to 0.

In the case of “TGTTCTCCATGGACCGGTTTTCCCGGTAATCCGTATTTGTA (site TGTTCACCTTA)”, the “recombinant UMI read abundance (log10)” value stood at 0.0104. On to “TGTTCTCCATGGACCGGTTTTCCCGGTAATCCGTATTTGTA (site TGTTCCCCTTA)”, for which the “recombinant UMI read abundance (log10)” value amounted to 0.00777.

Regarding “TGTTCTCCATGGACCGGTTTTCCCGGTAATCCGTATTTGTA (site TGTTCGCCTTA)”, the “recombinant UMI read abundance (log10)” value was found to be 0.0191. As for “TGTTCTCCATGGACCGGTTTTCCCGGTAATCCGTATTTGTA (site TGTTCTCCTTA)”, the figure is 0.679; as for “TGTTGGACATGGACCGGTTTTCCCGGTAATCCGTATTTGTG (site TGTTGGACTCA)”, 0.117; as for “TGTTGTGCATGGACCGGTTTTCCCGGTAATCCGTATTTGCG (site TGTTGTGCTCG)”, 0.684. As for “TTAAGAGCATGGACCGGTTTTCCCGGTAATCCGTATTTGCA (site TTAAGAGCTTG)”, the figure is 2.63. Regarding “TTAAGGCCATGGACCGGTTTTCCCGGTAATCCGTATTTGAC (site ATAAGGCCTGT)”, the “recombinant UMI read abundance (log10)” value was determined as 0.

With “TTAAGGCCATGGACCGGTTTTCCCGGTAATCCGTATTTGAC (site CTAAGGCCTGT)”, the “recombinant UMI read abundance (log10)” value came to 0. With “TTAAGGCCATGGACCGGTTTTCCCGGTAATCCGTATTTGAC (site GTAAGGCCTGT)”, the “recombinant UMI read abundance (log10)” value was found to be 0. Consider “TTAAGGCCATGGACCGGTTTTCCCGGTAATCCGTATTTGAC (site TTAAGGCCTGT)”, for which the “recombinant UMI read abundance (log10)” value was 0. On to “TTAAGTCCATGGACCGGTTTTCCCGGTAATCCGTATTTGTA (site TAAAGTCCTTA)”, for which the “recombinant UMI read abundance (log10)” value was determined as 0.00903.

For the sequence “TTAAGTCCATGGACCGGTTTTCCCGGTAATCCGTATTTGTA (site TCAAGTCCTTA)”, the “recombinant UMI read abundance (log10)” value worked out at 0.361.

With “TTAAGTCCATGGACCGGTTTTCCCGGTAATCCGTATTTGTA (site TGAAGTCCTTA)”, the “recombinant UMI read abundance (log10)” value stood at 0.0153. As to “TTAAGTCCATGGACCGGTTTTCCCGGTAATCCGTATTTGTA (site TTAAGTCCTTA)”, the “recombinant UMI read abundance (log10)” value is 1.44. As for “TTAATAGCATGGACCGGTTTTCCCGGTAATCCGTATTTGAT (site TTAATAGCTAT)”, the figure is 1.76.

In the case of “TTAATTCCATGGACCGGTTTTCCCGGTAATCCGTATTTGTG (site TTAATTCCTCA)”, the “recombinant UMI read abundance (log10)” value amounted to 0.4. The same measure for “TTACAACCATGGACCGGTTTTCCCGGTAATCCGTATTTGCA (site TTACAACCTTG)”: 0; for “TTACACTCATGGACCGGTTTTCCCGGTAATCCGTATTTGAT (site TTACACTCTAT)”: 2.95; for “TTACAGACATGGACCGGTTTTCCCGGTAATCCGTATTTGAG (site TTACAGACTCT)”: 1.21. For the sequence “TTACGAACATGGACCGGTTTTCCCGGTAATCCGTATTTGAC (site TTACGAACTGT)”, the “recombinant UMI read abundance (log10)” value was 2.28. In the case of “TTACTAACATGGACCGGTTTTCCCGGTAATCCGTATTTGGA (site ATACTAACTTC)”, the “recombinant UMI read abundance (log10)” value amounted to 0.0425. On to “TTACTAACATGGACCGGTTTTCCCGGTAATCCGTATTTGGA (site CTACTAACTTC)”, for which the “recombinant UMI read abundance (log10)” value was 0.457. Take “TTACTAACATGGACCGGTTTTCCCGGTAATCCGTATTTGGA (site GTACTAACTTC)”: the “recombinant UMI read abundance (log10)” value was found to be 0.288. As for “TTACTAACATGGACCGGTTTTCCCGGTAATCCGTATTTGGA (site TTACTAACTTC)”, the “recombinant UMI read abundance (log10)” value is 0.363. On to “TTAGAATCATGGACCGGTTTTCCCGGTAATCCGTATTTGAC (site CTAGTATCTGT)”, for which the “recombinant UMI read abundance (log10)” value was 0. As for “TTAGAATCATGGACCGGTTTTCCCGGTAATCCGTATTTGAC (site TTAGAATCTGT)”, the “recombinant UMI read abundance (log10)” value was determined as 1.48. Consider “TTAGCTACATGGACCGGTTTTCCCGGTAATCCGTATTTGTG (site TTAGCTACTCA)”, for which the “recombinant UMI read abundance (log10)” value came out at 0.319.

For “TTAGCTACATGGACCGGTTTTCCCGGTAATCCGTATTTGTG (site TTAGCTCCTCA)”, the “recombinant UMI read abundance (log10)” value is 0.00713. Consider “TTAGCTACATGGACCGGTTTTCCCGGTAATCCGTATTTGTG (site TTAGCTGCTCA)”, for which the “recombinant UMI read abundance (log10)” value amounted to 0.0109. In the case of “TTAGCTACATGGACCGGTTTTCCCGGTAATCCGTATTTGTG (site TTAGCTTCTCA)”, the “recombinant UMI read abundance (log10)” value was 0.0149. As to “TTAGCTGCATGGACCGGTTTTCCCGGTAATCCGTATTTGTC (site TTAGCTGCTAA)”, the “recombinant UMI read abundance (log10)” value was determined as 0.00712. With “TTAGCTGCATGGACCGGTTTTCCCGGTAATCCGTATTTGTC (site TTAGCTGCTCA)”, the “recombinant UMI read abundance (log10)” value worked out at 0.00796.

As for “TTAGCTGCATGGACCGGTTTTCCCGGTAATCCGTATTTGTC (site TTAGCTGCTGA)”, the “recombinant UMI read abundance (log10)” value is 2.26.

As for “TTAGCTGCATGGACCGGTTTTCCCGGTAATCCGTATTTGTC (site TTAGCTGCTTA)”, the “recombinant UMI read abundance (log10)” value stood at 0.15.

With “TTAGTATCATGGACCGGTTTTCCCGGTAATCCGTATTTGAC (site ATAGTATCTGT)”, the “recombinant UMI read abundance (log10)” value worked out at 2.12.

Take “TTAGTATCATGGACCGGTTTTCCCGGTAATCCGTATTTGAC (site CTAGTATCTGT)”: the “recombinant UMI read abundance (log10)” value is 2.18. For “TTAGTATCATGGACCGGTTTTCCCGGTAATCCGTATTTGAC (site GTAGTATCTGT)”, the “recombinant UMI read abundance (log10)” value was 0.348. On to “TTAGTATCATGGACCGGTTTTCCCGGTAATCCGTATTTGAC (site TTAGTATCTGT)”, for which the “recombinant UMI read abundance (log10)” value turned out to be 2.84. Consider “TTAGTCACATGGACCGGTTTTCCCGGTAATCCGTATTTGGG (site TTAGTCACTCC)”, for which the “recombinant UMI read abundance (log10)” value was 0.0104.

For the sequence “TTAGTCGCATGGACCGGTTTTCCCGGTAATCCGTATTTGCG (site ATAGTCGCTCG)”, the “recombinant UMI read abundance (log10)” value was 0.0346. The same measure for “TTAGTCGCATGGACCGGTTTTCCCGGTAATCCGTATTTGCG (site CTAGTCGCTCG)”: 0.00978; for “TTAGTCGCATGGACCGGTTTTCCCGGTAATCCGTATTTGCG (site GTAGTCGCTCG)”: 0.00638; for “TTAGTCGCATGGACCGGTTTTCCCGGTAATCCGTATTTGCG (site TTAGTCGCTCG)”: 0.224.

(Values after the supplement of paper PMC11208160.)
